Test results from the CheMixHub viscosity set.
± gives the uncertainty stated by the source.

Assay: xn = mol fraction of the nth substance listed
Conditions: 100 kPa

## CS(=O)(=O)O + O
293.15 K, x1 = 0.003409
  viscosity: 1.037 ± 0.1 mPa·s
293.15 K, x1 = 0.004307
  viscosity: 1.042 ± 0.1 mPa·s
293.15 K, x1 = 0.005194
  viscosity: 1.051 ± 0.11 mPa·s
293.15 K, x1 = 0.006086
  viscosity: 1.064 ± 0.11 mPa·s
293.15 K, x1 = 0.006979
  viscosity: 1.073 ± 0.11 mPa·s
293.15 K, x1 = 0.007862
  viscosity: 1.08 ± 0.11 mPa·s
293.15 K, x1 = 0.008752
  viscosity: 1.088 ± 0.11 mPa·s
293.15 K, x1 = 0.0177
  viscosity: 1.173 ± 0.12 mPa·s
293.15 K, x1 = 0.02629
  viscosity: 1.264 ± 0.13 mPa·s
293.15 K, x1 = 0.03475
  viscosity: 1.351 ± 0.14 mPa·s
293.15 K, x1 = 0.04308
  viscosity: 1.441 ± 0.14 mPa·s
293.15 K, x1 = 0.05122
  viscosity: 1.523 ± 0.15 mPa·s
293.15 K, x1 = 0.05919
  viscosity: 1.609 ± 0.16 mPa·s
293.15 K, x1 = 0.06721
  viscosity: 1.728 ± 0.17 mPa·s
293.15 K, x1 = 0.07493
  viscosity: 1.826 ± 0.18 mPa·s
293.15 K, x1 = 0.08256
  viscosity: 1.934 ± 0.19 mPa·s
293.15 K, x1 = 0.09015
  viscosity: 2.046 ± 0.21 mPa·s
293.15 K, x1 = 0.09748
  viscosity: 2.16 ± 0.22 mPa·s
293.15 K, x1 = 0.1048
  viscosity: 2.299 ± 0.23 mPa·s
293.15 K, x1 = 0.112
  viscosity: 2.411 ± 0.24 mPa·s
298.15 K, x1 = 0.003409
  viscosity: 0.9229 ± 0.093 mPa·s
298.15 K, x1 = 0.004307
  viscosity: 0.9279 ± 0.093 mPa·s
298.15 K, x1 = 0.005194
  viscosity: 0.9391 ± 0.094 mPa·s
298.15 K, x1 = 0.006086
  viscosity: 0.9475 ± 0.095 mPa·s
298.15 K, x1 = 0.006979
  viscosity: 0.9565 ± 0.096 mPa·s
298.15 K, x1 = 0.007862
  viscosity: 0.964 ± 0.097 mPa·s
298.15 K, x1 = 0.008752
  viscosity: 0.972 ± 0.097 mPa·s
298.15 K, x1 = 0.0177
  viscosity: 1.048 ± 0.11 mPa·s
298.15 K, x1 = 0.02629
  viscosity: 1.131 ± 0.11 mPa·s
298.15 K, x1 = 0.03475
  viscosity: 1.211 ± 0.12 mPa·s
298.15 K, x1 = 0.04308
  viscosity: 1.293 ± 0.13 mPa·s
298.15 K, x1 = 0.05122
  viscosity: 1.368 ± 0.14 mPa·s
298.15 K, x1 = 0.05919
  viscosity: 1.448 ± 0.15 mPa·s
298.15 K, x1 = 0.06721
  viscosity: 1.556 ± 0.16 mPa·s
298.15 K, x1 = 0.07493
  viscosity: 1.647 ± 0.17 mPa·s
298.15 K, x1 = 0.08256
  viscosity: 1.745 ± 0.17 mPa·s
298.15 K, x1 = 0.09015
  viscosity: 1.847 ± 0.19 mPa·s
298.15 K, x1 = 0.09748
  viscosity: 1.95 ± 0.2 mPa·s
298.15 K, x1 = 0.1048
  viscosity: 2.076 ± 0.21 mPa·s
298.15 K, x1 = 0.112
  viscosity: 2.177 ± 0.22 mPa·s
303.15 K, x1 = 0.003409
  viscosity: 0.827 ± 0.083 mPa·s
303.15 K, x1 = 0.004307
  viscosity: 0.833 ± 0.084 mPa·s
303.15 K, x1 = 0.005194
  viscosity: 0.8431 ± 0.085 mPa·s
303.15 K, x1 = 0.006086
  viscosity: 0.8496 ± 0.085 mPa·s
303.15 K, x1 = 0.006979
  viscosity: 0.8598 ± 0.086 mPa·s
303.15 K, x1 = 0.007862
  viscosity: 0.866 ± 0.087 mPa·s
303.15 K, x1 = 0.008752
  viscosity: 0.873 ± 0.088 mPa·s
303.15 K, x1 = 0.0177
  viscosity: 0.9423 ± 0.095 mPa·s
303.15 K, x1 = 0.02629
  viscosity: 1.02 ± 0.1 mPa·s
303.15 K, x1 = 0.03475
  viscosity: 1.094 ± 0.11 mPa·s
303.15 K, x1 = 0.04308
  viscosity: 1.169 ± 0.12 mPa·s
303.15 K, x1 = 0.05122
  viscosity: 1.237 ± 0.12 mPa·s
303.15 K, x1 = 0.05919
  viscosity: 1.311 ± 0.13 mPa·s
303.15 K, x1 = 0.06721
  viscosity: 1.41 ± 0.14 mPa·s
303.15 K, x1 = 0.07493
  viscosity: 1.493 ± 0.15 mPa·s
303.15 K, x1 = 0.08256
  viscosity: 1.583 ± 0.16 mPa·s
303.15 K, x1 = 0.09015
  viscosity: 1.676 ± 0.17 mPa·s
303.15 K, x1 = 0.09748
  viscosity: 1.769 ± 0.18 mPa·s
303.15 K, x1 = 0.1048
  viscosity: 1.885 ± 0.19 mPa·s
303.15 K, x1 = 0.112
  viscosity: 1.977 ± 0.2 mPa·s
308.15 K, x1 = 0.003409
  viscosity: 0.7471 ± 0.075 mPa·s
308.15 K, x1 = 0.0177
  viscosity: 0.8535 ± 0.086 mPa·s
308.15 K, x1 = 0.02629
  viscosity: 0.9254 ± 0.093 mPa·s
308.15 K, x1 = 0.03475
  viscosity: 0.9939 ± 0.1 mPa·s
308.15 K, x1 = 0.04308
  viscosity: 1.064 ± 0.11 mPa·s
308.15 K, x1 = 0.05122
  viscosity: 1.126 ± 0.11 mPa·s
308.15 K, x1 = 0.05919
  viscosity: 1.193 ± 0.12 mPa·s
308.15 K, x1 = 0.06721
  viscosity: 1.285 ± 0.13 mPa·s
308.15 K, x1 = 0.07493
  viscosity: 1.361 ± 0.14 mPa·s
308.15 K, x1 = 0.08256
  viscosity: 1.444 ± 0.14 mPa·s
308.15 K, x1 = 0.09015
  viscosity: 1.529 ± 0.15 mPa·s
308.15 K, x1 = 0.09748
  viscosity: 1.615 ± 0.16 mPa·s
308.15 K, x1 = 0.1048
  viscosity: 1.719 ± 0.17 mPa·s
308.15 K, x1 = 0.112
  viscosity: 1.803 ± 0.18 mPa·s
313.15 K, x1 = 0.0177
  viscosity: 0.7777 ± 0.078 mPa·s
313.15 K, x1 = 0.02629
  viscosity: 0.8437 ± 0.085 mPa·s
313.15 K, x1 = 0.03475
  viscosity: 0.9081 ± 0.091 mPa·s
313.15 K, x1 = 0.04308
  viscosity: 0.9738 ± 0.098 mPa·s
313.15 K, x1 = 0.05122
  viscosity: 1.031 ± 0.1 mPa·s
313.15 K, x1 = 0.05919
  viscosity: 1.094 ± 0.11 mPa·s
313.15 K, x1 = 0.06721
  viscosity: 1.176 ± 0.12 mPa·s
313.15 K, x1 = 0.07493
  viscosity: 1.247 ± 0.12 mPa·s
313.15 K, x1 = 0.08256
  viscosity: 1.323 ± 0.13 mPa·s
313.15 K, x1 = 0.09015
  viscosity: 1.402 ± 0.14 mPa·s
313.15 K, x1 = 0.09748
  viscosity: 1.48 ± 0.15 mPa·s
313.15 K, x1 = 0.1048
  viscosity: 1.576 ± 0.16 mPa·s
313.15 K, x1 = 0.112
  viscosity: 1.652 ± 0.17 mPa·s
318.15 K, x1 = 0.0177
  viscosity: 0.713 ± 0.072 mPa·s
318.15 K, x1 = 0.02629
  viscosity: 0.7737 ± 0.078 mPa·s
318.15 K, x1 = 0.03475
  viscosity: 0.834 ± 0.084 mPa·s
318.15 K, x1 = 0.04308
  viscosity: 0.8939 ± 0.09 mPa·s
318.15 K, x1 = 0.05122
  viscosity: 0.948 ± 0.095 mPa·s
318.15 K, x1 = 0.05919
  viscosity: 1.007 ± 0.1 mPa·s
318.15 K, x1 = 0.06721
  viscosity: 1.083 ± 0.11 mPa·s
318.15 K, x1 = 0.07493
  viscosity: 1.148 ± 0.12 mPa·s
318.15 K, x1 = 0.08256
  viscosity: 1.218 ± 0.12 mPa·s
318.15 K, x1 = 0.09015
  viscosity: 1.291 ± 0.13 mPa·s
318.15 K, x1 = 0.09748
  viscosity: 1.363 ± 0.14 mPa·s
318.15 K, x1 = 0.1048
  viscosity: 1.452 ± 0.15 mPa·s
318.15 K, x1 = 0.112
  viscosity: 1.519 ± 0.15 mPa·s
